# In US20190175633A1, “REACTIVE, LIPOPHILIC NUCLEOSIDE BUILDING BLOCKS FOR THE SYNTHESIS OF HYDROPHOBIC NUCLEIC ACIDS” (Ionovation GmbH, priority 2017, published 2019):
# “Also recorded” adds a separate entry of the source.
# Tests used:
# IGR-OV1 cells = test: Oncological test against IGR-OV1 cells; format: cell-based, human; conditions: IGR-OV1, FIGS. 12 and 13
# Text: (§1) FIGS. 10 to 17 show the activity of compounds ESP_2.2, ESP_2.5 and ESP_31 according to the invention as well as the comparative examples ESP_2 and ESP_3 (Table 4) in relation to the concentration employed against various different cancer cells. […] The x-axis depicts the molar concentration of the respective compound on a logarithmical scale.
# The epithelial morphology of IGR-OV1 cells was retained during in vitro and in vivo passages. Two cytogenetic markers characterize IGR-OV1 cells: a paracentric inversion of chromosome 3, and a translocation between chromosomes 2 and 5. These characteristics make the IGR-OV1 cell line a suitable experimental model for the treatment of human ovarian carcinomas and for biological studies of human solid tumors.
# [1] = tested on: primary clear renal cell adenocarcinoma (cell line 786-0); test: Oncological test against 786-0 cells; format: cell-based; conditions: 786-0, FIGS. 16 and 17
# Text: as §1
# This cell line is derived from a primary clear renal cell adenocarcinoma. The cells display both microvilli and desmosomes, and can be grown in soft agar. The cells produce a PTH like peptides that is identical to peptides produced by breast and lung tumors. The peptide has an N terminal sequence similar to PTH, has PTH like activity, and has a molecular weight of 6000 daltons.
# [2] = tested on: human colorectal adenocarcinoma cell line HCT15; format: cell-based; conditions: for activity on cell growth (growth inhibition / cytotoxic effect): HCT-15, FIGS. 14 and 15
# Text: The x-axis depicts the molar concentration of the respective compound on a logarithmical scale.
# various cancer cells = test: Oncological tests, summary over FIGS. 10 to 17; format: cell-based; conditions: ovarian, colon and kidney cancer cells
# Text: as §1
melting point [°C],Structure (SMILES),other results
55 to 56,"CCCCCCCCCCCCCCCCCCN(CC#CCN(CCCCCCCCCCCCCCCCCC)CCCCCCCCCCCCCCCCCC)CCCCCCCCCCCCCCCCCC [Compound 52, N,N,N′,N′-Tetraoctadecylbut-2-yne-1,4-diamine]",–
74,"COc1ccc(C(OC[C@H]2O[C@@H](n3cnc4c(=O)n(C/C=C(\C)CCC=C(C)C)cnc43)C[C@@H]2O)(c2ccccc2)c2ccc(OC)cc2)cc1 [Compound 4a, 9-((2R,4S,5R)-5-((Bis(4-methoxyphenyl)(phenyl)methoxy)-methyl)-4-hydroxytetrahydrofuran-2-yl)-1-((E)-3,7-di-methylocta-2,6-dienyl)-1H-purin-6(9H)-one]",–
51 to 52,"CCCCCCCCCCCCCCCCCCN(CC#CCCl)CCCCCCCCCCCCCCCCCC [Compound 51, 4-Chloro-N,N-dioctadecylbut-2-yn-1-amine]",–
93,"CCCCCCCCCCCCCCCC1(CCCCCCCCCCCCCCC)OC2C(CO)OC(n3ccc(=O)[nH]c3=O)C2O1 (stereo not drawn) [Compound 25d, 1-(6-Hydroxymethyl-2,2-dipentadecyl-tetrahydro-furo[3,4-d][1,3]dioxol-4-yl)-1H-pyrimidin-2,4-dione]",–
48 to 49,"CCCCCCCCCCCCCCCCCCN(CCCO)CCCCCCCCCCCCCCCCCC [Compound 42, 3-(Dioctadecylamino)propanol]",–
–,"O=c1ccn([C@@H]2O[C@H](CO)[C@@H](O)[C@H]2O)c(=O)[nH]1 [ESP_3, uridine, reference compound]",activity on cell growth (growth inhibition / cytotoxic effect) (IGR-OV1 cells): did not even cause a growth inhibition; activity on cell growth (growth inhibition / cytotoxic effect) [1]: does not show any activity at all; also recorded: did not show any activity at all
68 to 69,"CCCCCCCCCCCCCCCCCCN(CCCCCCCCCCCCCCCCCC)C(=O)CCC(=O)O [Compound 46, 4-(Dioctadecylamino)-4-oxobutanoic acid]",–
44 to 45,"CCCCCCCCCCCCCCCCCCN(CCCCCCCCCCCCCCCCCC)C(C)C(=O)OC (stereo not drawn) [Compound 41, Methyl N,N-dioctadecyl-2-aminopropionate]",–
–,"CCOC(=O)CCC1(C)O[C@@H]2[C@H](O1)[C@@H](CO)O[C@H]2n1ncc(=O)n(C/C=C(\C)CC/C=C(\C)CCC=C(C)C)c1=O (stereo partly drawn) [ESP_2.5, Ethyl-3-((3aR,4R,6R,6aR)-4-(3,5-dioxo-4-((2E,6E)-3,7,11-trimethyldodeca-2,6,10-trien-1-yl)-4,5-dihydro-1,2,4-triazin-2 (3H)-yl)-6-(hydroxymethyl)-2-methyltetrahydrofuro[3,4-d][1,3]dioxol-2-yl)propanoate]","activity on cell growth (growth inhibition / cytotoxic effect) [2]: increased activity; death of the cells (cytotoxic effect) ([2]; HCT-15, employed in high dosage): over 50%; activity on cell growth (growth inhibition / cytotoxic effect) (IGR-OV1 cells): improved inhibition effect; activity on cell growth (growth inhibition / cytotoxic effect) [1]: high cytotoxic effect; activity / cytotoxicity against various cancer cells (various cancer cells): particular high cytotoxicity"
57 to 58,"CCCCCCCCCCCCCCCCCCN(CCCCO)CCCCCCCCCCCCCCCCCC [Compound 48a, 4-(Dioctadecylamino)butan-1-ol]",–
124 to 125,"CCCCCCCCCCCCCCCCCCNC(=O)CCC(=O)O [Compound 58, 4-(Octadecylamino)-4-oxobutanoic acid]",–
–,CCCCCCCCCC1(CCCCCCCCC)OC2[C@@H](CO)O[C@@H](n3ccc(=O)[nH]c3=O)[C@H]2O1 (stereo partly drawn) [ESP_31],activity on cell growth (growth inhibition / cytotoxic effect) [2]: high cytotoxic activity; activity on cell growth (growth inhibition / cytotoxic effect) (IGR-OV1 cells): vast improvement with respect to the cytotoxic activity; activity on cell growth (growth inhibition / cytotoxic effect) [1]: cytotoxic effect
68,"COc1ccc(C(OC[C@H]2O[C@@H](n3cnc4c(=O)n(C/C=C(\C)CC/C=C(\C)CCC=C(C)C)cnc43)C[C@@H]2O)(c2ccccc2)c2ccc(OC)cc2)cc1 [Compound 4b, 9-((2R,4S,5R)-5-((Bis(4-methoxyphenyl)(phenyl)methoxy)-methyl)-4-hydroxytetrahydrofuran-2-yl)-1-((2E,6E)-3,7,11-trimethyldodeca-2,6,10-trienyl)-1H-purin-6(9H)-on]",–
86 to 87,"CCCCCCCCCCCCCCCCCCNC(=O)CCCO [Compound 62, 4-Hydroxy-N-octadecylbutanamide]",–
68 to 69,"CCCCCCCCCCCCCCCCCCNCCCCO [Compound 60, 4-(Octadecylamino)butan-1-ol]",–
–,"CCOC(=O)CC[C@@]1(C)O[C@@H]2[C@H](O1)[C@@H](COC(c1ccccc1)(c1ccccc1)c1ccc(OC)cc1)O[C@H]2n1ncc(=O)[nH]c1=O [ESP_2.2, Ethyl-3-((3aR,4R,6R,6aR)-4-(3,5-dioxo-4,5-dihydro-1,2,4-triazin-2(3H)-yl)-6-(((4-methoxyphenyl)diphenylmethoxy)methyl)-2-methyltetrahydrofuro[3,4-d][1,3]dioxol-2-yl)propanoate]",activity on cell growth (growth inhibition / cytotoxic effect) [2]: increased activity; activity on cell growth (growth inhibition / cytotoxic effect) (IGR-OV1 cells): activity of the compound could be increased
43 to 44,"C#CCN(CC#C)CCCCCCCCCCCCCCCCCC [Compound 57, N-Octadecyl-N,N-diprop-2-ynylamine]",–
90.1,"CCCCCCCCCCCCCC1(CCCCCCCCCCCCC)O[C@@H]2[C@H](O1)[C@@H](CO)O[C@H]2n1ccc(=O)[nH]c1=O [Compound 25c, 1-((3aR,4R,6R,6aR)-6-(hydroxymethyl)-2,2-ditridecyltetrahydrofuro[3,4-d][1,3]dioxol-4-yl)pyrimidin-2,4(1H,3H)-dione]",–
33 to 34,"C#CCN(CCCCO)CCCCCCCCCCCCCCCCCC [Compound 63, 4-[Octadecyl(prop-2-ynyl)amino]butan-1-ol]",–
69 to 71,CCCCCCCCCCCCCCCCCCN(CCBr)CCCCCCCCCCCCCCCCCC,–
102 to 103,"CCCCCCCCCCCCCCCCCCN(CCCCCCCCCCCCCCCCCC)CC(=O)O [Compound 37, N,N-dioctadecylglycine]",–
69.8,"CCCCCCCCCC1(CCCCCCCCC)O[C@@H]2[C@H](O1)[C@@H](CO)O[C@H]2n1ccc(=O)[nH]c1=O [Compound 25b, 1-((3aR,4R,6R,6aR)-6-(hydroxymethyl)-2,2-dinonyltetrahydrofuro[3,4-d][1,3]dioxol-4-yl)pyrimidin-2,4(1H,3H)-dione]",–
25 to 27,CCCCCCCCCCCCCCCCCCN1CCCC1,–
86 to 87,"CCCCCCCCCCCCCCCCCCNC(=O)CCC(=O)OC [Compound 59, Methyl 4-(octadecylamino)-4-oxobutanoate]",–
29 to 30,"CCCCCCCCCCCCCCCCCCN(CCCCCCCCCCCCCCCCCC)C(=O)CCC(=O)OC [Compound 47, Methyl 4-(dioctadecylamino)-4-oxobutanoate]",–
